Source: EPA's ToxRefDB 2

Experiments:
rabbit [1] = conditions: Prenatal developmental toxicity study, new zealand white, Oral, Gavage/Intubation, dose end: 19 GD
rat [2] = conditions: Prenatal developmental toxicity study, sprague dawley, Oral, Gavage/Intubation, dose end: 19 GD
rabbit [3] = conditions: Prenatal developmental toxicity study, new zealand white, Oral, Gavage/Intubation, dose end: 18 GD
mouse [4] = conditions: Carcinogenicity, cd1, Oral, Feed, dose end: 113 week, group: systemic
mouse [5] = conditions: Carcinogenicity, b6c3f1, Oral, Feed, dose end: 104 week, group: systemic
dog [6] = conditions: Chronic toxicity; beagle; Oral; Capsule; dose end: 12 month; group: systemic; systemic / in life observation / body weight / body weight gain + systemic / clinical chemistry / albumin / albumin + systemic / clinical …
rat [7] = conditions: Chronic toxicity, fischer, Oral, Feed, dose end: 24 month, group: systemic
rat [8] = conditions: Multigenerational reproductive toxicity study, sprague dawley, Oral, Feed, dose end: 2 generation
rabbit [9] = conditions: Prenatal developmental toxicity study, new zealand white, Oral, Gavage/Intubation, dose end: 28 GD
rat [10] = conditions: Combined chronic toxicity/carcinogenicity, sprague dawley, Oral, Feed, dose end: 104 week, group: systemic
dog [11] = conditions: Chronic toxicity, beagle, Oral, Capsule, dose end: 28 day, group: systemic
rat [12] = conditions: Combined chronic toxicity/carcinogenicity, sprague dawley, Oral, Feed, dose end: 24 month, group: systemic
rat [13] = conditions: Chronic toxicity, Sprague-Dawley, Oral, Feed, dose end: 104 week, group: systemic
mouse [14] = conditions: Combined chronic toxicity/carcinogenicity, other, Oral, Feed, dose end: 91 week, group: systemic
dog [15] = conditions: Subchronic oral toxicity in nonrodent, beagle, Feed, dose end: 26 week, group: systemic, systemic / in life observation / clinical signs / chewing of extremities + systemic / in life observation / clinical signs / muscle …
[16] = group: developmental, developmental / developmental malformation / bone / unossified
[17] = group: developmental, developmental / developmental malformation / bone / unossified + developmental / developmental malformation / bone / delayed ossification + …
[18] = group: maternal, systemic / in life observation / body weight / body weight gain + systemic / in life observation / food consumption / food consumption + …
[19] = group: developmental, developmental / developmental malformation / bone / incomplete ossification + developmental / developmental malformation / bone / misaligned…
[20] = group: maternal, systemic / in life observation / body weight / body weight gain + systemic / in life observation / clinical signs / respiration (rales)
[21] = group: maternal, systemic / in life observation / body weight / body weight gain + systemic / in life observation / clinical signs / respiration (rales) + …
[22] = group: developmental, developmental / developmental malformation / bone / [other] + developmental / developmental malformation / bone / misshapen fontanel + …
[23] = group: maternal, reproductive / reproductive performance / aborted / aborted + reproductive / reproductive performance / resorptions / resorptions + systemic…
[24] = systemic / hematology / hematocrit (hct) / hematocrit (hct) + systemic / in life observation / clinical signs / weakness + systemic / …
[25] = systemic / pathology microscopic / stomach / hyperkeratosis + systemic / pathology microscopic / intestine small / carcinoma + systemic / …
[26] = systemic / pathology microscopic / stomach / hyperkeratosis + systemic / pathology microscopic / intestine small / hyperplasia + systemic / …
[27] = systemic / pathology microscopic / stomach / hyperkeratosis
[28] = systemic / pathology microscopic / stomach / hyperkeratosis + systemic / in life observation / body weight / body weight gain + systemic / …
[29] = group: offspring, systemic / in life observation / body weight / offspring (pup) weight
[30] = group: parental, systemic / in life observation / body weight / body weight + systemic / in life observation / body weight / body weight gain + systemic / in…
[31] = group: reproductive, reproductive / reproductive performance / fertility / fertility
[32] = group: developmental, developmental / developmental malformation / bone / domed head + developmental / developmental malformation / bone / misshapen fontanel + …
[33] = group: maternal, systemic / in life observation / food consumption / food consumption
[34] = systemic / pathology microscopic / stomach / acanthosis + systemic / pathology microscopic / stomach / erosion + systemic / pathology …
[35] = systemic / pathology microscopic / testes / interstitial cell tumor nos + systemic / pathology microscopic / thyroid gland / adenoma/…
[36] = systemic / in life observation / clinical signs / emesis + systemic / organ weight / liver / absolute + systemic / organ weight / brain / …
[37] = systemic / in life observation / body weight / body weight
[38] = systemic / in life observation / body weight / body weight + systemic / clinical chemistry / alpha-2 globulin / alpha-2 globulin + systemic…
[39] = systemic / in life observation / body weight / body weight + systemic / organ weight / brain / relative to body weight + systemic / organ …
[40] = systemic / pathology microscopic / liver / granuloma + systemic / pathology microscopic / lymph node / granuloma + systemic / clinical …
[41] = systemic / pathology microscopic / liver / granuloma + systemic / pathology microscopic / lymph node / granuloma + systemic / hematology / …

Work on `O=C1c2ccccc2C(=O)N1SC(Cl)(Cl)Cl` [Folpet] yielded an LEL (rabbit [1]; [16]) of 40 mg/kg/day, an LOAEL (rabbit [1]; [16]) of 40 mg/kg/day and an NEL (rabbit [1]; [17]) of 10 mg/kg/day. It also gave an NOAEL (rabbit [1]; [17]) of 10 mg/kg/day, an LOAEL (rabbit [1]; group: maternal, systemic / in life observation / body weight / body weight gain + systemic / in life observation / food consumption / food consumption) of 160 mg/kg/day and an LEL (rabbit [1]; [18]) of 160 mg/kg/day. It also gave an NEL (rabbit [1]; [18]) of 40 mg/kg/day, an NOAEL (rabbit [1]; [18]) of 40 mg/kg/day and an LEL (rat [2]; [19]) of 360 mg/kg/day. It also gave an LOAEL (rat [2]; [19]) of 360 mg/kg/day, an NEL (rat [2]; [19]) of 60 mg/kg/day and an NOAEL (rat [2]; [19]) of 60 mg/kg/day. For the same compound, the LEL (rat [2]; [20]) was 60 mg/kg/day, the LOAEL (rat [2]; [20]) was 60 mg/kg/day and the NEL (rat [2]; [21]) was 10 mg/kg/day. The NOAEL (rat [2]; [21]) was 10 mg/kg/day, the LEL (rabbit [3]; [22]) was 60 mg/kg/day and the LOAEL (rabbit [3]; [22]) was greater than 60 mg/kg/day. The NEL (rabbit [3]; [22]) was less than 60 mg/kg/day, the NOAEL (rabbit [3]; [22]) was no less than 60 mg/kg/day and the LEL (rabbit [3]; [23]) was 60 mg/kg/day. It also gave an LOAEL (rabbit [3]; [23]) greater than 60 mg/kg/day, an NEL (rabbit [3]; [23]) of less than 60 mg/kg/day and an NOAEL (rabbit [3]; [23]) of no less than 60 mg/kg/day. It also gave an LEL (mouse [4]; [24]) of 93 mg/kg/day, an NEL (mouse [4]; [24]) of less than 93 mg/kg/day and an LOAEL (mouse [4]; systemic / pathology microscopic / intestine small / hyperplasia) of 1280 mg/kg/day. The NOAEL (mouse [4]; systemic / pathology microscopic / intestine small / hyperplasia + systemic / pathology microscopic / intestine small / adenocarcinoma + …) was 502 mg/kg/day, the LOAEL (mouse [5]; [25]) was 150 mg/kg/day and the NOAEL (mouse [5]; [25]) was less than 150 mg/kg/day. For the same compound, the LEL (mouse [5]; [26]) was 150 mg/kg/day, the NEL (mouse [5]; [26]) was less than 150 mg/kg/day and the LEL (dog [6]) was 60 mg/kg/day. It also gave an LOAEL (dog [6]) of 60 mg/kg/day, an NEL (dog [6]) of 10 mg/kg/day and an NOAEL (dog [6]) of 10 mg/kg/day. It also gave an LEL (rat [7]; [27]) of 81 mg/kg/day, an LOAEL (rat [7]; [27]) of 81 mg/kg/day and an NEL (rat [7]; [28]) of 12 mg/kg/day. It also gave an NOAEL (rat [7]; [28]) of 12 mg/kg/day, an LEL (rat [8]; [29]) of 180 mg/kg/day and an LOAEL (rat [8]; [29]) of 180 mg/kg/day. The NEL (rat [8]; [29]) was 40 mg/kg/day, the NOAEL (rat [8]; [29]) was 40 mg/kg/day and the LOAEL (rat [8]; [30]) was 180 mg/kg/day. For the same compound, the NEL (rat [8]; [30]) was 10 mg/kg/day, the NOAEL (rat [8]; [30]) was 40 mg/kg/day and the LEL (rat [8]; group: parental, systemic / in life observation / food consumption / food consumption) was 40 mg/kg/day. The LEL (rat [8]; [31]) was 180 mg/kg/day, the LOAEL (rat [8]; [31]) was 180 mg/kg/day and the NEL (rat [8]; [31]) was 40 mg/kg/day. For the same compound, the NOAEL (rat [8]; [31]) was 40 mg/kg/day, the LEL (rabbit [9]; [32]) was 20 mg/kg/day and the LOAEL (rabbit [9]; [32]) was 20 mg/kg/day. It also gave an NEL (rabbit [9]; [32]) of 10 mg/kg/day, an NOAEL (rabbit [9]; [32]) of 10 mg/kg/day and an LEL (rabbit [9]; [33]) of 20 mg/kg/day. It also gave an LOAEL (rabbit [9]; [33]) of 20 mg/kg/day, an NEL (rabbit [9]; [33]) of 10 mg/kg/day and an NOAEL (rabbit [9]; [33]) of 10 mg/kg/day. The LOAEL (rat [10]; [34]) was 35 mg/kg/day, the NOAEL (rat [10]; [34]) was 9 mg/kg/day and the LEL (rat [10]; [35]) was 9 mg/kg/day. The NEL (rat [10]; [35]) was less than 9 mg/kg/day, the LOAEL (dog [11]; systemic / in life observation / body weight / body weight gain + systemic / in life observation / body weight / body weight) was 60 mg/kg/day and the NOAEL (dog [11]; systemic / in life observation / body weight / body weight gain + systemic / in life observation / body weight / body weight + systemic / in…) was 20 mg/kg/day. For the same compound, the LEL (dog [11]; [36]) was 20 mg/kg/day and the NEL (dog [11]; [36]) was less than 20 mg/kg/day.
Work on `CC(C)[C@@H](C(=O)O[C@@H](C#N)c1cccc(Oc2ccccc2)c1)c1ccc(Cl)cc1` [Fenvalerate] yielded an LEL (rat [12]; [37]) of 1.25 mg/kg/day, an NEL (rat [12]; systemic / in life observation / body weight / body weight + systemic / clinical chemistry / alpha-2 globulin / alpha-2 globulin) of 0.25 mg/kg/day and an LOAEL (rat [12]; [38]) greater than 25 mg/kg/day. The NOAEL (rat [12]; [38]) was no less than 25 mg/kg/day, the LOAEL (rat [13]; [37]) was 50 mg/kg/day and the NOAEL (rat [13]; [37]) was less than 50 mg/kg/day. It also gave an LEL (rat [13]; [39]) of 50 mg/kg/day, an NEL (rat [13]; [39]) of less than 50 mg/kg/day and an NEL (mouse [14]; [40]) of 4.5 mg/kg/day. For the same compound, the NOAEL (mouse [14]; [40]) was 4.5 mg/kg/day, the LEL (mouse [14]; [41]) was 15 mg/kg/day and the LOAEL (mouse [14]; [41]) was 15 mg/kg/day. It also gave an LEL (dog [15]) of 6.25 mg/kg/day, an LOAEL (dog [15]) of 6.25 mg/kg/day and an NEL (dog [15]) of less than 6.25 mg/kg/day. The NOAEL (dog [15]) was less than 6.25 mg/kg/day.
